Data set [1] relates to stable HCV 1a RLuc replicon cells (genotype 1a H77 replicon). In words: microbe, parasite or virus in culture. Type of data set: cell-based. The conditions noted are these: Hepatitis C virus.
The test system of data set [2] is stable HCV 2a JFH-1 Rluc replicon cells (L31 present in NS5A). The data set can be described thus: microbe, parasite or virus in culture. Type of data set: cell-based. The conditions noted are these: Hepatitis C virus.
In data set [3] the test system is NS5A chimeric genotype 1b Con1 replicon with genotype 3a S52 strain NS5A gene. In words: microbe, parasite or virus in culture. Type of data set: cell-based, HCV. The conditions noted are these: Hepatitis C virus. The procedure, abridged:
(§1)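 Con1-based 3a and 4a chimeras carried a Pi-RLuc reporter and were transiently transfected into Huh-Lunet cells; the JFH-1-based 2b chimera (RLuc-Neo) was used transiently or as stable replicon cells.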

The subject of data set [4] is NS5A chimeric genotype 2a JFH-1 replicon with genotype 2a J6 strain NS5A gene (M31 present). The data set can be described thus: microbe, parasite or virus in culture. In kind it is cell-based, HCV. The conditions noted are these: Hepatitis C virus.
The test system of data set [5] is NS5A chimeric genotype 2a JFH-1 replicon with genotype 2b MD2b-1 strain NS5A gene (M31 present). The data set can be described thus: microbe, parasite or virus in culture. Type of data set: cell-based, HCV. The conditions noted are these: Hepatitis C virus. Summed up:
as §1

Data set [6] deals with NS5A chimeric genotype 1b Con1 replicon with genotype 4a ED43 strain NS5A gene. The data set can be described thus: microbe, parasite or virus in culture. Type of data set: cell-based, HCV. The conditions noted are these: Hepatitis C virus.
Data set [7] has as its system 1a Pi-Rluc replicon with Q30R in genotype 1a NS5A. In words: microbe, parasite or virus in culture. Type of data set: cell-based, HCV. The conditions noted are these: Hepatitis C virus. Summed up:
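Q30R introduced by site-directed mutagenesis into genotype 1a Pi-RLuc replicon; RNA transiently transfected into Huh-7-derived cured-51 cells.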

Data set [8] can be described thus: IV and PO single dose pharmacokinetic studies in SD rats. In kind it is in vivo. The conditions noted are these: male, Sprague-Dawley, rat, plasma, IV infusion 1 mg/kg vs oral gavage 2 mg/kg, read-out: Rat % F. The method, then:
IV and PO Single Dose Pharmacokinetic Studies in SD Rats: The pharmacokinetics of selected compounds was characterized in male Sprague-Dawley (SD) rats (250-300g). […] The intravenous (IV) dosing vehicle was 5% ethanol, 35% polyethylene glycol 400 (PEG 400) and 60% water pH 2.0. […] Serial blood samples (approximately 0.3 mL each) were collected from jugular vein or other suitable vein at specified time points. […] The blood samples were collected into Vacutainer™ tubes containing EDTA-K3 as the anti-coagulant and were centrifuged at approximately 4° C. to obtain plasma. The plasma samples were stored at −20° C. until analysis by LC/MS/MS. A bioanalytical method utilizing high performance liquid chromatography coupled to tandem mass spectrometry (LC/MS/MS) was developed for analysis of the selected compound in rat plasma. Detection was performed using selected reaction monitoring (SRM); […] Standard curve and quality control samples were prepared in male rat plasma and processed in the same way as the test samples to generate quantitative data. Pharmacokinetic parameters were generated using non-compartmental pharmacokinetic analysis (Phoenix WinNonlin, version 6.3). Values below the lower limit of quantification (LLOQ) were assigned a value of zero if predose and treated as missing thereafter. Area under the curve (AUC) was calculated using the linear trapezoidal rule. The oral bioavailability (% F) was determined by comparison of the area under the curve (AUC) of the compound and/or a metabolite generated in plasma following oral administration to that generated following intravenous administration.

Each structure is given as a SMILES string. Read-outs that look alike come from different tables or passages of the source. Bounds are passed on as bounds.

`COC[C@H]1C[C@@H](c2nc3ccc4cc5c(cc4c3[nH]2)OCc2cc(-c3cnc([C@@H]4CC[C@H](C)N4C(=O)[C@@H](NC(=O)OC)C(C)C)[nH]3)ccc2-5)N(C(=O)[C@@H](NC(=O)OC)C(C)C)C1` [Example MP, methyl{(2S)-1-[(2S,5S)-2-(5-{2-[(2S,4S)-1-{(2S)-2-[(methoxycarbonyl)amino]-3-methylbutanoyl}-4-methoxymethylpyrrolidin-2-yl]-1,11-dihydroisochromeno[4′,3′:6,7]naphtho[1,2-d]imidazol-9-yl}-1H-imidazol-2-yl)-5-methylpyrrolidin-1-yl]-3-methyl-1-oxobutan-2-yl}carbamate]: the EC50 was less than 1 nM in data set [1] (read-out: 1a); 0.006 nM in data set [1] (read-out: 1a (nM)); less than 1 nM in data set [2] (read-out: 2a JFH); 0.004 nM in data set [2] (read-out: 2a JFH (nM)); less than 1 nM in data set [3] (read-out: 3a); 0.015 nM in data set [3] (read-out: 3a (nM)). In addition, the EC50 was less than 1 nM in data set [4] (read-out: 2a J6); 0.336 nM in data set [4] (read-out: 2a J6 (s) (nM)); 0.039 nM in data set [4] (read-out: 2a Jb (t) (nM)); less than 1 nM in data set [5] (read-out: 2b); 0.184 nM in data set [5] (read-out: 2b (s) (nM)); 0.032 nM in data set [5] (read-out: 2b (t) (nM)). In addition, the EC50 was less than 1 nM in data set [6] (read-out: 4a); 0.013 nM in data set [6] (read-out: 4a (s) (nM)); 0.015 nM in data set [6] (read-out: 4a (t) (nM)); less than 1 nM in data set [7] (read-out: 1a Q30R); 0.031 nM in data set [7] (read-out: 1a Q30R (nM)). Besides, the bioavailability in data set [8] was 24.2%.
As for `COC[C@H]1C[C@@H](c2nc3ccc4cc5c(cc4c3[nH]2)OCc2cc(-c3cnc([C@@H]4C[C@H](C)CN4C(=O)[C@@H](NC(=O)OC)C(C)C)[nH]3)ccc2-5)N(C(=O)[C@@H](NC(=O)OC)C(C)C)C1` [Example MO, methyl {(2S)-1-[(2S,4S)-2-(5-{2-[(2S,4S)-1-{(2S)-2-[(methoxycarbonyl)amino]-3-methylbutanoyl}-4-methoxymethylpyrrolidin-2-yl]-1,11-dihydroisochromeno[4′,3′:6,7]naphtho[1,2-d]imidazol-9-yl}-1H-imidazol-2-yl)-4-methylpyrrolidin-1-yl]-3-methyl-1-oxobutan-2-yl}carbamate], the EC50 was less than 1 nM in data set [1] (read-out: 1a); 0.013 nM in data set [1] (read-out: 1a (nM)); less than 1 nM in data set [2] (read-out: 2a JFH); 0.007 nM in data set [2] (read-out: 2a JFH (nM)); less than 1 nM in data set [3] (read-out: 3a); 0.051 nM in data set [3] (read-out: 3a (nM)). The EC50 was less than 1 nM in data set [4] (read-out: 2a J6); 0.471 nM in data set [4] (read-out: 2a J6 (s) (nM)); 0.089 nM in data set [4] (read-out: 2a Jb (t) (nM)); less than 1 nM in data set [5] (read-out: 2b); 0.427 nM in data set [5] (read-out: 2b (s) (nM)); 0.137 nM in data set [5] (read-out: 2b (t) (nM)). Further, the EC50 was less than 1 nM in data set [6] (read-out: 4a); 0.018 nM in data set [6] (read-out: 4a (s) (nM)); 0.022 nM in data set [6] (read-out: 4a (t) (nM)); less than 1 nM in data set [7] (read-out: 1a Q30R); 0.052 nM in data set [7] (read-out: 1a Q30R (nM)). Also, the bioavailability in data set [8] amounted to 7.46%.
In the case of `COC[C@H]1C[C@@H](c2ncc(-c3ccc4c(c3)COc3cc5c(ccc6nc([C@@H]7C[C@H](C)CN7C(=O)[C@@H](NC(=O)OC)C(C)C)[nH]c65)cc3-4)[nH]2)N(C(=O)[C@H](NC(=O)OC)c2ccccc2)C1` [Example NM, Methyl {(1R)-2-[(2S,4S)-2-(5-{2-[(2S,4S)-1-{(2S)-2-[(methoxycarbonyl)amino]-3-methylbutanoyl}-4-methylpyrrolidin-2-yl]-1,11-dihydroisochromeno[4′,3′:6,7]naphtho[1,2-d]imidazol-9-yl}-1H-imidazol-2-yl)-4-(methoxymethyl)pyrrolidin-1-yl]-2-oxo-1-phenylethyl}carbamate], the EC50 is less than 1 nM in data set [1] (read-out: 1a); 0.011 nM in data set [1] (read-out: 1a (nM)); less than 1 nM in data set [2] (read-out: 2a JFH); 0.006 nM in data set [2] (read-out: 2a JFH (nM)); less than 1 nM in data set [3] (read-out: 3a); 0.024 nM in data set [3] (read-out: 3a (nM)). Besides, the EC50 in data set [4] (read-out: 2a J6) is less than 1 nM; in data set [4] (read-out: 2a Jb (t) (nM)), 0.012 nM; in data set [5] (read-out: 2b) it was less than 1 nM; in data set [5] (read-out: 2b (t) (nM)), 0.013 nM; in data set [7] (read-out: 1a Q30R) it was less than 1 nM; in data set [7] (read-out: 1a Q30R (nM)) it was 0.028 nM. In addition, in data set [8], the bioavailability is 6.93%.
With `COC[C@H]1C[C@@H](c2nc3c([nH]2)-c2cc4c(cc2CC3)-c2ccc(-c3cnc([C@@H]5CC[C@H](C)N5C(=O)[C@@H](NC(=O)OC)C(C)C)[nH]3)cc2CO4)N(C(=O)[C@H](NC(=O)OC)c2ccccc2)C1` [Example OP, Methyl {(1R)-2-[(2S,4S)-2-(9-{2-[(2S,5S)-1-{(2S)-2-[(methoxycarbonyl)amino]-3-methylbutanoyl}-5-methylpyrrolidin-2-yl]-1H-imidazol-5-yl}-1,4,5,11-tetrahydroisochromeno[4′,3′:6,7]naphtho[1,2-d]imidazol-2-yl)-4-(methoxymethyl)pyrrolidin-1-yl]-2-oxo-1-phenylethyl}carbamate], the EC50 in data set [1] (read-out: 1a) was less than 1 nM; in data set [1] (read-out: 1a (nM)), 0.013 nM; in data set [2] (read-out: 2a JFH), less than 1 nM; in data set [2] (read-out: 2a JFH (nM)), 0.008 nM; in data set [3] (read-out: 3a), less than 1 nM; in data set [3] (read-out: 3a (nM)), 0.027 nM. In addition, the EC50 was less than 1 nM in data set [4] (read-out: 2a J6); 0.018 nM in data set [4] (read-out: 2a Jb (t) (nM)); less than 1 nM in data set [5] (read-out: 2b); 0.007 nM in data set [5] (read-out: 2b (s) (nM)); 0.011 nM in data set [5] (read-out: 2b (t) (nM)); less than 1 nM in data set [7] (read-out: 1a Q30R). Further, the EC50 in data set [7] (read-out: 1a Q30R (nM)) came out at 0.026 nM. For the same compound, the bioavailability in data set [8] is 15.1%.
As to `COC[C@H]1C[C@@H](c2ncc(-c3ccc4c(c3)COc3cc5c(cc3-4)CCc3nc([C@@H]4CC[C@H](C)N4C(=O)[C@@H](NC(=O)OC)C(C)C)[nH]c3-5)[nH]2)N(C(=O)[C@H](NC(=O)OC)c2ccccc2)C1` [Example OH, methyl {(1R)-2-[(2S,4S)-2-(5-{2-[(2S,5S)-1-{(2S)-2-[(methoxycarbonyl)amino]-3-methylbutanoyl}-5-methylpyrrolidin-2-yl]-1,4,5,11-tetrahydroisochromeno[4′,3′:6,7]naphtho[1,2-d]imidazol-9-yl}-1H-imidazol-2-yl)-4-(methoxymethyl)pyrrolidin-1-yl]-2-oxo-1-phenylethyl}carbamate], the EC50 was less than 1 nM in data set [1] (read-out: 1a); 0.016 nM in data set [1] (read-out: 1a (nM)); less than 1 nM in data set [2] (read-out: 2a JFH); 0.007 nM in data set [2] (read-out: 2a JFH (nM)); less than 1 nM in data set [3] (read-out: 3a); 0.026 nM in data set [3] (read-out: 3a (nM)). In addition, the EC50 in data set [4] (read-out: 2a J6) was less than 1 nM; in data set [4] (read-out: 2a Jb (t) (nM)) it was 0.054 nM; in data set [5] (read-out: 2b), less than 1 nM; in data set [5] (read-out: 2b (s) (nM)) it was 0.022 nM; in data set [5] (read-out: 2b (t) (nM)), 0.023 nM; in data set [7] (read-out: 1a Q30R), less than 1 nM. Also, in data set [7] (read-out: 1a Q30R (nM)), the EC50 is 0.031 nM. In addition, the bioavailability in data set [8] was 22.7%.
Consider `COC[C@H]1C[C@@H](c2nc3ccc4cc5c(cc4c3[nH]2)OCc2cc(-c3cnc([C@@H]4CC[C@H](C)N4C(=O)[C@@H](NC(=O)OC)C(C)C)[nH]3)ccc2-5)N(C(=O)[C@@H](NC(=O)OC)[C@@H](C)OC)C1` [Example OM, Methyl {(2S)-1-[(2S,4S)-2-(5-{2-[(2S,5S)-1-{(2S,3R)-3-methoxy-2-[(methoxycarbonyl)amino]butanoyl}-4-(methoxymethyl)pyrrolidin-2-yl]-1,11-dihydroisochromeno[4′,3′:6,7]naphtho[1,2-d]imidazol-9-yl}-1H-imidazol-2-yl)-5-methylpyrrolidin-1-yl]-3-methyl-1-oxobutan-2-yl}carbamate], for which the EC50 in data set [1] (read-out: 1a) was less than 1 nM; in data set [1] (read-out: 1a (nM)), 0.014 nM; in data set [2] (read-out: 2a JFH), less than 1 nM; in data set [2] (read-out: 2a JFH (nM)), 0.009 nM; in data set [3] (read-out: 3a) it was less than 1 nM; in data set [3] (read-out: 3a (nM)), 0.035 nM. Also, the EC50 in data set [4] (read-out: 2a J6) was less than 1 nM; in data set [4] (read-out: 2a Jb (t) (nM)), 0.045 nM; in data set [5] (read-out: 2b) it was less than 1 nM; in data set [5] (read-out: 2b (s) (nM)) it was 0.054 nM; in data set [5] (read-out: 2b (t) (nM)), 0.053 nM; in data set [7] (read-out: 1a Q30R), less than 1 nM. Further, the EC50 in data set [7] (read-out: 1a Q30R (nM)) is 0.035 nM. Moreover, the bioavailability in data set [8] was 12.2%.

For the origin of these results see patent US8575135B2 (Gilead Sciences, Inc., priority 2011, dated 2013).
